Key:
Type in all cases: functional
[1] = tested on: Malme-3M; assay: Growth inhibition of human MALME-3M cells incubated for 48 hrs by sulforhodamine B assay
[2] = tested on: U-251; assay: Growth inhibition of human U251 cells assessed as cell growth at 0.01 uM incubated for 48 hrs by sulforhodamine B assay relative to control; conditions: U-251, 48 h, read-out: Activity
[3] = tested on: TK-10; assay: Growth inhibition of human TK10 cells assessed as cell growth at 0.01 uM incubated for 48 hrs by sulforhodamine B assay relative to control; conditions: TK-10, 48 h, read-out: Activity
[4] = tested on: SF-539; assay: Growth inhibition of human SF539 cells incubated for 48 hrs by sulforhodamine B assay; conditions: SF-539, 48 h
[5] = tested on: SK-MEL-2; assay: Growth inhibition of human SK-MEL-2 cells assessed as cell growth at 1 uM incubated for 48 hrs by sulforhodamine B assay relative to control; conditions: SK-MEL-2, 48 h, read-out: Activity
[6] = tested on: SF-295; assay: Growth inhibition of human SF295 cells assessed as cell growth at 100 uM incubated for 48 hrs by sulforhodamine B assay relative to control; conditions: SF-295, 48 h, read-out: Activity
[7] = tested on: RPMI-8226; assay: Growth inhibition of human RPMI8226 cells assessed as cell growth at 100 uM incubated for 48 hrs by sulforhodamine B assay relative to control; conditions: RPMI-8226, 48 h, read-out: Activity
[8] = tested on: SK-OV-3; assay: Growth inhibition of human SKOV3 cells assessed as cell growth at 1 uM incubated for 48 hrs by sulforhodamine B assay relative to control; conditions: SK-OV-3, 48 h, read-out: Activity
[9] = tested on: MDA-MB-435; assay: Growth inhibition of human MDA-MB-435 cells assessed as cell growth at 100 uM incubated for 48 hrs by sulforhodamine B assay relative to control; conditions: MDA-MB-435, 48 h, read-out: Activity
[10] = tested on: U-251; assay: Growth inhibition of human U251 cells assessed as cell growth at 0.1 uM incubated for 48 hrs by sulforhodamine B assay relative to control; conditions: U-251, 48 h, read-out: Activity
[11] = tested on: RXF 393; assay: Growth inhibition of human RXF393 cells assessed as cell growth at 100 uM incubated for 48 hrs by sulforhodamine B assay relative to control; conditions: RXF 393, 48 h, read-out: Activity
[12] = tested on: SF-268; assay: Growth inhibition of human SF268 cells assessed as cell growth at 0.1 uM incubated for 48 hrs by sulforhodamine B assay relative to control; conditions: SF-268, 48 h, read-out: Activity
[13] = tested on: NCI-H522; assay: Growth inhibition of human NCI-H522 cells assessed as cell growth at 0.01 uM incubated for 48 hrs by sulforhodamine B assay relative to control; conditions: NCI-H522, 48 h, read-out: Activity
[14] = tested on: A498; assay: Growth inhibition of human A498 cells assessed as cell growth at 1 uM incubated for 48 hrs by sulforhodamine B assay relative to control; conditions: A498, 48 h, read-out: Activity
[15] = tested on: LOX IMVI; assay: Growth inhibition of human LOXIMVI cells incubated for 48 hrs by sulforhodamine B assay
[16] = tested on: HCT-15; assay: Growth inhibition of human HCT15 cells assessed as cell growth at 0.1 uM incubated for 48 hrs by sulforhodamine B assay relative to control; conditions: HCT-15, 48 h, read-out: Activity
[17] = tested on: NCI/ADR-RES; assay: Growth inhibition of human NCI-ADR-RES cells assessed as cell growth at 100 uM incubated for 48 hrs by sulforhodamine B assay relative to control; conditions: read-out: Activity
[18] = tested on: EKVX; assay: Growth inhibition of human EKVX cells assessed as cell growth at 1 uM incubated for 48 hrs by sulforhodamine B assay relative to control; conditions: read-out: Activity
[19] = tested on: SF-539; assay: Growth inhibition of human SF539 cells assessed as cell growth at 100 uM incubated for 48 hrs by sulforhodamine B assay relative to control; conditions: SF-539, 48 h, read-out: Activity
[20] = tested on: KM12; assay: Growth inhibition of human KM12 cells incubated for 48 hrs by sulforhodamine B assay; conditions: KM12, 48 h
[21] = tested on: MDA-MB-435; assay: Growth inhibition of human MDA-MB-435 cells assessed as cell growth at 1 uM incubated for 48 hrs by sulforhodamine B assay relative to control; conditions: MDA-MB-435, 48 h, read-out: Activity
[22] = tested on: BT-549; assay: Growth inhibition of human BT549 cells assessed as cell growth at 0.01 uM incubated for 48 hrs by sulforhodamine B assay relative to control; conditions: BT-549, 48 h, read-out: Activity
[23] = tested on: OVCAR-5; assay: Growth inhibition of human OVCAR5 cells assessed as cell growth at 0.1 uM incubated for 48 hrs by sulforhodamine B assay relative to control; conditions: OVCAR-5, 48 h, read-out: Activity
[24] = tested on: OVCAR-5; assay: Growth inhibition of human OVCAR5 cells incubated for 48 hrs by sulforhodamine B assay; conditions: OVCAR-5, 48 h
[25] = tested on: MDA-MB-435; assay: Growth inhibition of human MDA-MB-435 cells assessed as cell growth at 0.01 uM incubated for 48 hrs by sulforhodamine B assay relative to control; conditions: MDA-MB-435, 48 h, read-out: Activity
[26] = tested on: RPMI-8226; assay: Growth inhibition of human RPMI8226 cells assessed as cell growth at 1 uM incubated for 48 hrs by sulforhodamine B assay relative to control; conditions: RPMI-8226, 48 h, read-out: Activity
[27] = tested on: CCRF-CEM; assay: Growth inhibition of human CCRF-CEM cells assessed as cell growth at 0.1 uM incubated for 48 hrs by sulforhodamine B assay relative to control; conditions: read-out: Activity
[28] = tested on: RPMI-8226; assay: Growth inhibition of human RPMI8226 cells incubated for 48 hrs by sulforhodamine B assay; conditions: RPMI-8226, 48 h
[29] = tested on: HT-29; assay: Growth inhibition of human HT-29 cells assessed as cell growth at 0.01 uM incubated for 48 hrs by sulforhodamine B assay relative to control; conditions: HT-29, 48 h, read-out: Activity
[30] = tested on: NCI-H226; assay: Growth inhibition of human NCI-H226 cells assessed as cell growth at 1 uM incubated for 48 hrs by sulforhodamine B assay relative to control; conditions: NCI-H226, 48 h, read-out: Activity
[31] = tested on: SR; assay: Growth inhibition of human SR cells assessed as cell growth at 1 uM incubated for 48 hrs by sulforhodamine B assay relative to control; conditions: read-out: Activity
[32] = read-out: LC50 (the source's name)
[33] = read-out: pLC50 (the source's name) (converted)

c1ccc2[nH]c(-c3ccc(-c4nccc5c4[nH]c4ccccc45)cc3)nc2c1
GI50 ([1]; read-out: GI50): 1.85 µM
CC50 [1, 32]: 7.07 µM
TGI ([1]; read-out: TGI): 3.61 µM
GI50 ([1]; read-out: pGI50 (converted)): 1.86 µM
CC50 [1, 33]: 7.08 µM
TGI ([1]; read-out: pTGI (converted)): 3.63 µM
growth at 0.01 µM [2]: 101%
growth at 0.01 µM [3]: 96%
GI50 ([4]; read-out: GI50): 1.89 µM
CC50 [4, 32]: 7.17 µM
TGI ([4]; read-out: TGI): 3.68 µM
GI50 ([4]; read-out: pGI50 (converted)): 1.91 µM
CC50 [4, 33]: 7.24 µM
TGI ([4]; read-out: pTGI (converted)): 3.72 µM
growth at 1 µM [5]: 94%
growth at 100 µM [6]: 71%
growth at 100 µM [7]: 43%
growth at 1 µM [8]: 100%
growth at 100 µM [9]: 67%
growth at 0.1 µM [10]: 104%
growth at 100 µM [11]: 68%
growth at 0.1 µM [12]: 96%
growth at 0.01 µM [13]: 91%
growth at 1 µM [14]: 92%
GI50 ([15]; read-out: GI50): 1.67 µM
TGI ([15]; read-out: TGI): 3.82 µM
GI50 ([15]; read-out: pGI50 (converted)): 1.66 µM
TGI ([15]; read-out: pTGI (converted)): 3.8 µM
growth at 0.1 µM [16]: 97%
growth at 100 µM [17]: 45%
growth at 1 µM [18]: 93%
growth at 100 µM [19]: 70%
LC50 ([20]; read-out: LC50): 5.29 µM
GI50 ([20]; read-out: pGI50 (converted)): 3.63 µM
LC50 ([20]; read-out: pLC50 (converted)): 52.5 µM
TGI ([20]; read-out: pTGI (converted)): 15.8 µM
growth at 1 µM [21]: 91%
growth at 0.01 µM [22]: 91%
growth at 0.1 µM [23]: 90%
GI50 ([24]; read-out: GI50): 2.43 µM
CC50 [24, 32]: 5 µM
TGI ([24]; read-out: TGI): 6.47 µM
GI50 ([24]; read-out: pGI50 (converted)): 2.45 µM
CC50 [24, 33]: 50.1 µM
TGI ([24]; read-out: pTGI (converted)): 6.46 µM
growth at 0.01 µM [25]: 93%
growth at 1 µM [26]: 106%
growth at 0.1 µM [27]: 102%
GI50 ([28]; read-out: GI50): 2.48 µM
CC50 [28, 32]: > 1 µM
TGI ([28]; read-out: TGI): 5.61 µM
GI50 ([28]; read-out: pGI50 (converted)): 2.45 µM
CC50 [28, 33]: > 100 µM
TGI ([28]; read-out: pTGI (converted)): 5.62 µM
growth at 0.01 µM [29]: 100%
growth at 1 µM [30]: 96%
growth at 1 µM [31]: 88%

c1ccc2c3c([nH]c2c1)C(c1ccc(C2NCCc4c2[nH]c2ccccc42)cc1)NCC3 (racemic)
GI50 ([1]; read-out: GI50): 1.55 µM
CC50 [1, 32]: 6.24 µM
TGI ([1]; read-out: TGI): 3.11 µM
GI50 ([1]; read-out: pGI50 (converted)): 1.55 µM
CC50 [1, 33]: 6.17 µM
TGI ([1]; read-out: pTGI (converted)): 3.09 µM
growth at 0.01 µM [2]: 98%
growth at 0.01 µM [3]: 97%
GI50 ([4]; read-out: GI50): 1.62 µM
CC50 [4, 32]: 5.71 µM
TGI ([4]; read-out: TGI): 3.04 µM
GI50 ([4]; read-out: pGI50 (converted)): 1.62 µM
CC50 [4, 33]: 5.75 µM
TGI ([4]; read-out: pTGI (converted)): 3.02 µM
growth at 1 µM [5]: 86%
growth at 100 µM [6]: 89%
growth at 100 µM [7]: 75%
growth at 1 µM [8]: 90%
growth at 100 µM [9]: 97%
growth at 0.1 µM [10]: 97%
growth at 100 µM [11]: -81%
growth at 0.1 µM [12]: 89%
growth at 0.01 µM [13]: 104%
growth at 1 µM [14]: 65%
GI50 ([15]; read-out: GI50): 1.96 µM
CC50 [15, 32]: 1.1 µM
TGI ([15]; read-out: TGI): 4.5 µM
GI50 ([15]; read-out: pGI50 (converted)): 0.195 µM
CC50 [15, 33]: 1.1 µM
TGI ([15]; read-out: pTGI (converted)): 4.47 µM
growth at 0.1 µM [16]: 95%
growth at 100 µM [17]: -30%
growth at 1 µM [18]: 70%
growth at 100 µM [19]: 97%
GI50 ([20]; read-out: GI50): 1.07 µM
TGI ([20]; read-out: TGI): 2.36 µM
GI50 ([20]; read-out: pGI50 (converted)): 1.07 µM
TGI ([20]; read-out: pTGI (converted)): 2.34 µM
growth at 1 µM [21]: 11%
growth at 0.01 µM [22]: 87%
growth at 0.1 µM [23]: 93%
GI50 ([24]; read-out: GI50): 1.8 µM
CC50 [24, 32]: 9.65 µM
TGI ([24]; read-out: TGI): 4.17 µM
GI50 ([24]; read-out: pGI50 (converted)): 1.82 µM
CC50 [24, 33]: 9.55 µM
TGI ([24]; read-out: pTGI (converted)): 4.17 µM
growth at 0.01 µM [25]: 95%
growth at 1 µM [26]: 2%
growth at 0.1 µM [27]: 104%
CC50 [28, 32]: 1.23 µM
GI50 ([28]; read-out: pGI50 (converted)): 0.339 µM
CC50 [28, 33]: 12.3 µM
TGI ([28]; read-out: pTGI (converted)): 1.1 µM
growth at 0.01 µM [29]: 104%
growth at 1 µM [30]: 94%
growth at 1 µM [31]: 36%

Reference: ChEMBL document CHEMBL4004838, “Design and synthesis of novel phenyl -1, 4-beta-carboline-hybrid molecules as potential anticancer agents” (Eur J Med Chem, 2017)
